Laboratory results published in ChEMBL document CHEMBL5113422, “Structure-based rational design enables efficient discovery of a new selective and potent AKT PROTAC degrader” (Eur J Med Chem, 2022).
Calls of active or inactive are those of the source. The rule behind the calls is not given here.

Experiments:
JeKo-1 [1] = test: Antiproliferative activity against human Jeko-1 cells assessed as cell viability measured after 7 days by CCK-8 assay; type: functional, cell-based; conditions: JeKo-1, 168 h
MM1.S [2] = test: Antiproliferative activity against human MM1.S cells assessed as cell viability measured after 7 days by CCK-8 assay; type: functional, cell-based; conditions: 168 h
[3] = Antiproliferative activity against human Mino cells assessed as cell viability measured after 7 days by CCK-8 assay; type: functional, cell-based; conditions: 168 h
JeKo-1 [4] = test: Antiproliferative activity against human Jeko-1 cells expressing CRBN-knockout assessed as cell viability measured after 7 days by CCK-8 assay; type: functional, cell-based; conditions: JeKo-1, 168 h
MM1.S [5] = test: Antiproliferative activity against human MM1.S cells assessed as cell viability measured after 3 days by CCK-8 assay; type: functional, cell-based; conditions: 72 h
[6] = biological target: Protein cereblon/RAC-alpha serine/threonine-protein kinase (Homo sapiens) (UniProt P31749+Q96SW2); test: Protac activity at CRBN/Akt1 in human Jeko-1 cells assessed as Akt1 degradation at 500 nM after 12 hrs by immunoblot analysis; type: cell-based
Protein cereblon/AKT [7] = biological target: T1, Protein cereblon/AKT (Homo sapiens, UniProt P31751+Q9Y243+P31749+Q96SW2); test: Protac activity at CRBN/Akt in human Jeko-1 cells assessed as decrease in phosphorylated GSK3beta level after 24 hrs by immunoblot analysis; type: cell-based; conditions: dose 10-1000 nM
Protein cereblon/AKT [8] = biological target: T1, Protein cereblon/AKT; test: Protac activity at CRBN/Akt in human Jeko-1 cells assessed as decrease in Myc level after 24 hrs cotreated with Ibrutinib by immunoblot analysis; type: cell-based
Protein cereblon/AKT [9] = biological target: T1, Protein cereblon/AKT; test: Protac activity at CRBN/Akt in human Jeko-1 cells assessed as Akt degradation after 24 hrs by immunoblot analysis relative to control; type: cell-based
JeKo-1 [10] = test: Antiproliferative activity against human Jeko-1 cells assessed as cell viability measured after 3 days cotreated with Ibrutinib by CCK-8 assay; type: functional, cell-based; conditions: time 3.0 day
[11] = biological target: Protein cereblon/RAC-beta serine/threonine-protein kinase (Homo sapiens) (UniProt P31751+Q96SW2); test: Protac activity at CRBN/Akt2 in human Jeko-1 cells assessed as Akt2 degradation at 500 nM after 12 hrs by immunoblot analysis; type: cell-based
[12] = biological target: Protein cereblon/Zinc finger protein Aiolos (Homo sapiens) (UniProt Q96SW2+Q9UKT9); test: Protac activity at CRBN/IKZF3 in human Jeko-1 cells assessed as IKZF3 degradation at 500 nM after 12 hrs by immunoblot analysis; type: cell-based
Protein cereblon/AKT [13] = biological target: T1, Protein cereblon/AKT; test: Protac activity at CRBN/Akt in human Jeko-1 cells assessed as Akt degradation at 250 nM after 2 hrs by immunoblot analysis; type: cell-based
Protein cereblon/AKT [14] = biological target: T1, Protein cereblon/AKT; test: Protac activity at CRBN/Akt in human Jeko-1 cells assessed as Akt degradation at 250 nM after 24 hrs by immunoblot analysis relative to control; type: cell-based

Protein cereblon/RAC-alpha serine/threonine-protein kinase (Homo sapiens), sequence (P31749 whole entry, looked up): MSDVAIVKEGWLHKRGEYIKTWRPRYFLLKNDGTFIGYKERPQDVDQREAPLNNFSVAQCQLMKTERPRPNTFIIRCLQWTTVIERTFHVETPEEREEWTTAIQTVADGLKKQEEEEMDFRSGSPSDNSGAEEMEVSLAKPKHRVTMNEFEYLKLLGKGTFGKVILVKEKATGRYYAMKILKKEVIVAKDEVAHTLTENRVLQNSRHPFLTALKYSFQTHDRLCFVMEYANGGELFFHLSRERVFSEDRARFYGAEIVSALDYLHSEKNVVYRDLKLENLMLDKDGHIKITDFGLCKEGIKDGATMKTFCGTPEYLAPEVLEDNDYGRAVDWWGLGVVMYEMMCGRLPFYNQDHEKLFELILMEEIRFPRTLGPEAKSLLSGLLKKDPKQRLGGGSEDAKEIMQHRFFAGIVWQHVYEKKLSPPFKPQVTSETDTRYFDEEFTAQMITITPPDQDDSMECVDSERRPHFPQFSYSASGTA
Protein cereblon/RAC-alpha serine/threonine-protein kinase (Homo sapiens), sequence (Q96SW2 whole entry, looked up): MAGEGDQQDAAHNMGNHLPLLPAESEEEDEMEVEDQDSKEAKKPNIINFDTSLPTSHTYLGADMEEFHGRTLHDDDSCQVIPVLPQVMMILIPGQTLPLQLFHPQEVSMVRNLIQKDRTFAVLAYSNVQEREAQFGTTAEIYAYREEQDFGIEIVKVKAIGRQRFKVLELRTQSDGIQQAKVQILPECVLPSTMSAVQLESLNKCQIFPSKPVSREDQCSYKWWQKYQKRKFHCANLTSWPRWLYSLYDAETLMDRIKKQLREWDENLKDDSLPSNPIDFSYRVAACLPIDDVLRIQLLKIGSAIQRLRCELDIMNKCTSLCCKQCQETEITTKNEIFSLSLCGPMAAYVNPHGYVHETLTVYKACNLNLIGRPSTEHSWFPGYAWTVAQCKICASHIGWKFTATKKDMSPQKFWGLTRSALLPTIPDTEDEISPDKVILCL
T1 sequence (P31751 whole entry): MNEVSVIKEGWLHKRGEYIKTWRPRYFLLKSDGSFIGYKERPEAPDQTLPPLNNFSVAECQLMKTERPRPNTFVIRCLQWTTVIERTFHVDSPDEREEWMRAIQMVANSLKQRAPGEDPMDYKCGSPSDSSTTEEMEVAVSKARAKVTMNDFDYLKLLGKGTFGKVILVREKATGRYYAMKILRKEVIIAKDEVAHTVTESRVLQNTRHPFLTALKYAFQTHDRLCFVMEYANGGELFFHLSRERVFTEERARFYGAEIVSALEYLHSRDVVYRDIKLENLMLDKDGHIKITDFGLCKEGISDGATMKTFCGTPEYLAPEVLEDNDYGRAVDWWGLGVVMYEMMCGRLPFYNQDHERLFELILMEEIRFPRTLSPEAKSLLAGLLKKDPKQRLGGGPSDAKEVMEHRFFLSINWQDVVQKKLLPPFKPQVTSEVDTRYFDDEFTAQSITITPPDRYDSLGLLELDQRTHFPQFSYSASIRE
T1 sequence (Q9Y243 whole entry): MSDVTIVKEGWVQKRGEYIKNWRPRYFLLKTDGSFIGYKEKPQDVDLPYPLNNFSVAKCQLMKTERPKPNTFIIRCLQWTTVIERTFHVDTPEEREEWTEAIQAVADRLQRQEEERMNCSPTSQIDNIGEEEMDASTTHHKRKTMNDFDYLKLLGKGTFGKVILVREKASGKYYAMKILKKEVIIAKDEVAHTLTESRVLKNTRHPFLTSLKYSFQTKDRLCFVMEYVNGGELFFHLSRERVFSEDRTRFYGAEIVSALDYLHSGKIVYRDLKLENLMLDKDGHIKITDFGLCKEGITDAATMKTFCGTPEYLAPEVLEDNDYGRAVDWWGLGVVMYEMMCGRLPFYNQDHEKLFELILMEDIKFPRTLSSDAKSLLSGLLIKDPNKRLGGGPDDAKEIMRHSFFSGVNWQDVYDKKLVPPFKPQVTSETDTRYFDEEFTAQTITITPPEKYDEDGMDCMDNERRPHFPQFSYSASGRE
T1 sequence (P31749 whole entry): as the sequence (P31749 whole entry, looked up) above
T1 sequence (Q96SW2 whole entry): as the sequence (Q96SW2 whole entry, looked up) above
Protein cereblon/RAC-beta serine/threonine-protein kinase (Homo sapiens), sequence (P31751 whole entry, looked up): as the sequence (P31751 whole entry) above
Protein cereblon/RAC-beta serine/threonine-protein kinase (Homo sapiens), sequence (Q96SW2 whole entry, looked up): as the sequence (Q96SW2 whole entry, looked up) above
Protein cereblon/Zinc finger protein Aiolos (Homo sapiens), sequence (Q96SW2 whole entry, looked up): as above
Protein cereblon/Zinc finger protein Aiolos (Homo sapiens), sequence (Q9UKT9 whole entry, looked up): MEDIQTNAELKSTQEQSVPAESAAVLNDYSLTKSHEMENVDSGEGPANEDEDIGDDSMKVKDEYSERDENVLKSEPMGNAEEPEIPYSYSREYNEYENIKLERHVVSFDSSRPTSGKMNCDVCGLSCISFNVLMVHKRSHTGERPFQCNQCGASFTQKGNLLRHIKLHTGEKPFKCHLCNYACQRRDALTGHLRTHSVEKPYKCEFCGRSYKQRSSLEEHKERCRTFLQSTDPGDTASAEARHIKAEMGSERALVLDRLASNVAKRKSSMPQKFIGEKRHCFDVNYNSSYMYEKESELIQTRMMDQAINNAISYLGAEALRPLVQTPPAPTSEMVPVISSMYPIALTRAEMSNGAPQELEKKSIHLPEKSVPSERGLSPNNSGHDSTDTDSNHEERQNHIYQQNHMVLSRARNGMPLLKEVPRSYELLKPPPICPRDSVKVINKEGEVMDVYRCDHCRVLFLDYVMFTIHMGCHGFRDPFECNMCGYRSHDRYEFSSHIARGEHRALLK

In the case of `Nc1cccc2c1C(=O)N(C1CCC(=O)NC1=O)C2=O` (stereo not given) [POMALIDOMIDE], the IC50 (JeKo-1 [1]) is reported as 2620 nM, the IC50 (MM1.S [2]) is reported as 21.9 nM and the IC50 [3] is reported as 16.5 µM. For the same compound, the IC50 (JeKo-1 [4]) was > 20000 nM and the IC50 (MM1.S [5]) was 838 nM.
For `Cn1ncc(Cl)c1-c1cc(C(=O)N[C@@H]2CN[C@H](CC(=O)Nc3ccc(OCCOCCOCCNc4cccc5c4C(=O)N(C4CCC(=O)NC4=O)C5=O)cc3)C[C@H]2c2cccc(F)c2)oc1Cl` (stereo not given in full), the Activity [6] was “Active”, the Activity (Protein cereblon/AKT [7]) was “Active” and the Activity (Protein cereblon/AKT [8]) was “Active”. The IC50 (JeKo-1 [1]) was 205 nM, the DC50 (Protein cereblon/AKT [9]) was 28 nM and the Activity (JeKo-1 [10]) was “Active”. The IC50 (MM1.S [2]) was 23.4 nM, the IC50 [3] was 2.27 µM and the Activity [11] was “Active”. For the same compound, the IC50 (JeKo-1 [4]) was 2320 nM, the Activity [12] was “Active” and the Activity (Protein cereblon/AKT [13]) was “Active”. For the same compound, the Activity (Protein cereblon/AKT [14]) was 95% and the IC50 (MM1.S [5]) was 79 nM.
With `Nc1cccc2c1CN(C1CCC(=O)NC1=O)C2=O` (stereo not given) [LENALIDOMIDE] the IC50 (JeKo-1 [1]) was > 20000 nM, the IC50 (MM1.S [2]) was 70.2 nM and the IC50 [3] was > 20 µM. For the same compound, the IC50 (JeKo-1 [4]) was > 20000 nM and the IC50 (MM1.S [5]) was > 20000 nM.
For `Cn1ncc(Cl)c1-c1ccc(C(=O)N[C@@H]2CN[C@H](CC(=O)Nc3ccc(OCCOCCOCCNc4cccc5c4C(=O)N(C4CCC(=O)NC4=O)C5=O)cc3)C[C@H]2c2cccc(F)c2)s1` (stereo not given in full), the Activity (Protein cereblon/AKT [14]) was 95%.
In the case of `COCCOCCOCCNc1cccc2c1C(=O)N(C1CCC(=O)NC1=O)C2=O` (stereo not given), the IC50 (JeKo-1 [1]) is reported as > 20000 nM, the IC50 (MM1.S [2]) is reported as 40.3 nM and the IC50 [3] is reported as > 20 µM. For the same compound, the IC50 (JeKo-1 [4]) was > 20000 nM and the IC50 (MM1.S [5]) was 4790 nM.
For `CNC(=O)C[C@@H]1C[C@@H](c2cccc(F)c2)[C@H](NC(=O)c2ccc(-c3c(Cl)cnn3C)s2)CN1`, the IC50 (JeKo-1 [1]) was 506 nM, the IC50 (MM1.S [2]) was 72.4 nM and the IC50 [3] was 3.37 µM. The IC50 (JeKo-1 [4]) was 350 nM and the IC50 (MM1.S [5]) was 72.9 nM.
